Consider two compounds from EPA's ToxValDB 9.5 (doi:10.2903/j.efsa.2009.1390).

≈ marks a conversion by molar mass, not a printed value.

One series deals with Anas platyrhynchos. As to conditions: acute; oral; unspecified; mortality.
The next series relates to Apis mellifera. Conditions: acute, mortality.
The subject of a further series is Bibionidae. Conditions: chronic/long-term; duration: 28 days.
In another series the test system is Canidae. Conditions: chronic; duration: 1 years; oral; Dog Other; organ weight.
Another series deals with Daphnia magna. Conditions: chronic/long-term; duration: 21 days; reproduction.
Another series deals with Oryctolagus sp. As to conditions: reproduction developmental; body weight.
The next series concerns Rattus norvegicus. Conditions: acute; oral; F; mortality.
In the next series the test system is Typhlodromus pyri. As to the kind of experiment: LR50; higher = less toxic. As to conditions: not reported; mortality.

In turn, `Nc1c(Cl)c(Cl)nc(C(=O)[O-])c1Cl.[K+]` [Picloram potassium salt] showed an LD50 with Anas platyrhynchos of more than 2250 mg/kg-day. Further, the LC50 in the series with Colinus virginianus (acute, oral, diet, mortality) is more than 2200 mg/kg-day.
One may read the NOAEL as the highest dose or exposure tested at which no adverse effect was seen. Regarding `Nc1c(Cl)c(Cl)nc(C(=O)O)c1Cl` [Picloram], the LD50 in the series with Apis mellifera (dermal) was more than 100 µg/piece; in the series with Apis mellifera (oral, unspecified) it was more than 74 µg/piece; with Rattus norvegicus it was 4010 mg/kg-day. The NOEC with Bibionidae stood at 100 mg/L; with Colinus virginianus (reproduction developmental), 65 mg/kg-day; in the series on Daphnia magna it was 6.79 mg/L; in the series on Oncorhynchus mykiss (chronic/long-term, duration: 70 days, development), 0.55 mg/L; in the series on Tagia sp. (chronic/long-term, duration: 8 weeks) it was 0.167 mg/kg. The NOAEL with Canidae stood at 35 mg/kg-day; with Oryctolagus sp., 30 mg/kg-day. Also, the LC50 in the series with Oncorhynchus mykiss (acute, duration: 96 hours, mortality) is 8.8 µg/mL (≈ 36.4 µM); with Tagia sp. (acute, duration: 14 days, mortality), more than 4480 mg/kg. The compound also yielded an LR50 with Typhlodromus pyri of more than 23.4 g/ha.
